Assay: Safety and tolerability: adverse events, dose-limiting toxicities, MTD, RP2D (Phase 1A/1B)
Format: in vivo
Method: This was an open-label, Phase 1, dose-escalation/dose-expansion study, conducted across six study centres in Australia. The dose-escalation phase evaluated twice-daily (BID) and once-daily (QD) dosing, and the dose-expansion phase evaluated the BID RP2D from the dose-escalation phase and food effects (Fig. 1). The food-effects cohort comprised two sequences: fast followed by fed (sequence 1) and fed followed by fast (sequence 2). […] The decision to proceed to the next dose cohort was determined by the Safety Monitoring Committee and followed a modified 3 + 3 escalation scheme. […] When ≥2 DLTs occurred in the first 23 days of a dose level, the next lower dose level was declared the MTD. Safety was monitored and DLTs were assessed in all dose cohorts. […] The food-effects cohort investigated the effects of food on the PK of pamiparib in patients with advanced solid tumours.
The QD dosing regimen was added as an amendment to the protocol with the purpose of exploring the feasibility of a more convenient regimen.
Safety and tolerability were assessed throughout the study by monitoring adverse events (AEs), serious AEs, clinical laboratory measurements and physical examinations. Adverse events were categorised according to their severity (National Cancer Institute Common Terminology Criteria for Adverse Events v4.03) and relationship to the study treatment.

[1] = 101 total patients, dose escalation and expansion
[2] = BID dose-escalation (2.5–120 mg), 45 patients
[3] = BID dose-escalation, 45 patients
[4] = Dose Escalation and Dose Expansion (N=101)
[5] = Total BID dose escalation (N = 45)
[6] = Total QD dose escalation (N=19)

C[C@]12CCCN1CC1=NNC(=O)c3cc(F)cc4[nH]c2c1c34 [pamiparib]
Serious AE: nausea (101 patients): 4.0%
Serious AE: pleural effusion (101 patients): 3.0%
Serious AE: pneumonia (101 patients): 3.0%
Serious AE: small intestinal obstruction (101 patients): 5.0%
Serious AEs (101 patients (44 patients)): 43.6%
Anaemia leading to dose reduction/interruption (101 total patients): 21.8%
Haematologic AEs leading to dose reduction/interruption (101 total patients): 23.8%
Neutropenia leading to dose reduction/interruption (101 total patients): 5.9%
Thrombocytopenia leading to dose reduction/interruption (101 total patients): 4.0%
Adverse events leading to treatment discontinuation (101 total patients (six patients)): 5.9%
Anaemia, Grades ≥3 [1]: 24.8%
Anaemia, all Grades [1]: 35.6%
Diarrhoea, Grades ≥3 [1]: 2.0%
Diarrhoea, all Grades [1]: 32.7%
Fatigue, Grades ≥3 [1]: 3.0%
Fatigue, all Grades [1]: 48.5%
Increased alanine aminotransferase, Grades ≥3 [1]: 5.0%
Increased alanine aminotransferase, all Grades [1]: 11.9%
Nausea, Grades ≥3 [1]: 4.0%
Nausea, all Grades [1]: 69.3%
Neutropenia, Grades ≥3 [1]: 5.9%
Neutropenia, all Grades [1]: 9.9%
Vomiting, Grades ≥3 [1]: 1.0%
Vomiting, all Grades [1]: 31.7%
Treatment-related grade ≥3 AEs (120-mg BID dosage cohort): 60.0%
Treatment-related grade ≥3 AEs (160-mg QD dosage cohort): 63.6%
Patients with a grade ≥3 AE (BID dosage cohort, dose escalation (N=45)): 62.2%
Anaemia, AE [2]: 33.3%
Diarrhoea, AE [2]: 28.9%
Fatigue, AE [2]: 33.3%
Nausea, AE [2]: 64.4%
Vomiting, AE [2]: 35.6%
Treatment-related AEs leading to dose interruptions [3]: 31.1%
Treatment-related AEs leading to dose reductions [3]: 6.7%
Maximum tolerated dose (MTD) (BID dosing): 80 mg
Recommended Phase 2 dose (RP2D) (BID dosing): 60 mg
Abdominal pain, All Grades [4]: 17 (16.8) n (%)
Abdominal pain, Grade ≥3 [4]: 1 (1.0) n (%)
Anemia, All Grades [4]: 36 (35.6) n (%)
Anemia, Grade ≥3 [4]: 25 (24.8) n (%)
Constipation, All Grades [4]: 21 (20.8) n (%)
Constipation, Grade ≥3 [4]: 0 n (%)
Decreased appetite, All Grades [4]: 23 (22.8) n (%)
Decreased appetite, Grade ≥3 [4]: 0 n (%)
Diarrhea, All Grades [4]: 33 (32.7) n (%)
Diarrhea, Grade ≥3 [4]: 2 (2.0) n (%)
Fatigue, All Grades [4]: 49 (48.5) n (%)
Fatigue, Grade ≥3 [4]: 3 (3.0) n (%)
Headache, All Grades [4]: 12 (11.9) n (%)
Headache, Grade ≥3 [4]: 0 n (%)
Increased alanine aminotransferase, All Grades [4]: 12 (11.9) n (%)
Increased alanine aminotransferase, Grade ≥3 [4]: 5 (5.0) n (%)
Increased aspartate aminotransferase, All Grades [4]: 10 (9.9) n (%)
Increased aspartate aminotransferase, Grade ≥3 [4]: 3 (3.0) n (%)
Nausea, All Grades [4]: 70 (69.3) n (%)
Nausea, Grade ≥3 [4]: 4 (4.0) n (%)
Neutropenia, All Grades [4]: 10 (9.9) n (%)
Neutropenia, Grade ≥3 [4]: 6 (5.9) n (%)
Upper respiratory tract infection, All Grades [4]: 12 (11.9) n (%)
Upper respiratory tract infection, Grade ≥3 [4]: 0 n (%)
Urinary tract infection, All Grades [4]: 14 (13.9) n (%)
Urinary tract infection, Grade ≥3 [4]: 1 (1.0) n (%)
Vomiting, All Grades [4]: 32 (31.7) n (%)
Vomiting, Grade ≥3 [4]: 1 (1.0) n (%)
Patients with a grade ≥3 AE (QD dosage cohort, dose escalation (N=19)): 73.7%
Treatment-related AEs leading to dose interruptions (QD dosage group (N=19)): 57.9%
Treatment-related AEs leading to dose reductions (QD dosage group (N=19)): 5.3%
Diarrhea, AE (QD dosage group overall (N=19)): 47.4%
Fatigue, AE (QD dosage group overall (N=19)): 68.4%
Nausea, AE (QD dosage group overall (N=19)): 73.7%
Maximum tolerated dose (MTD) (QD dosing): 160 mg
Recommended Phase 2 dose (RP2D) (QD dosing): 120 mg
Abdominal pain, AE of any grade [5]: 9 (20.0) n (%)
Anaemia, AE of any grade [5]: 15 (33.3) n (%)
Ascites, AE of any grade [5]: 5 (11.1) n (%)
Back pain, AE of any grade [5]: 4 (8.9) n (%)
Constipation, AE of any grade [5]: 8 (17.8) n (%)
Cough, AE of any grade [5]: 4 (8.9) n (%)
Decreased appetite, AE of any grade [5]: 5 (11.1) n (%)
Diarrhoea, AE of any grade [5]: 13 (28.9) n (%)
Dose-limiting toxicity [5]: 4 (8.9) n (%)
Dyspnoea, AE of any grade [5]: 3 (6.7) n (%)
Fatigue, AE of any grade [5]: 15 (33.3) n (%)
Headache, AE of any grade [5]: 4 (8.9) n (%)
Hypoalbuminemia, AE of any grade [5]: 3 (6.7) n (%)
Hypomagnesemia, AE of any grade [5]: 4 (8.9) n (%)
Hypophosphatemia, AE of any grade [5]: 3 (6.7) n (%)
Increased AST, AE of any grade [5]: 3 (6.7) n (%)
Muscle spasms, AE of any grade [5]: 4 (8.9) n (%)
Nausea, AE of any grade [5]: 29 (64.4) n (%)
Neutropenia, AE of any grade [5]: 6 (13.3) n (%)
Non-cardiac chest pain, AE of any grade [5]: 3 (6.7) n (%)
Pain in extremity, AE of any grade [5]: 3 (6.7) n (%)
Peripheral sensory neuropathy, AE of any grade [5]: 3 (6.7) n (%)
Pleural effusion, AE of any grade [5]: 4 (8.9) n (%)
Pyrexia, AE of any grade [5]: 4 (8.9) n (%)
Treatment-emergent AE [5]: 45 (100.0) n (%)
Treatment-emergent AE: Grade 3 or higher [5]: 28 (62.2) n (%)
Treatment-emergent AE: Leading to death [5]: 4 (8.9) n (%)
Treatment-emergent AE: Leading to dose interruption [5]: 27 (60.0) n (%)
Treatment-emergent AE: Leading to dose modification [5]: 27 (60.0) n (%)
Treatment-emergent AE: Leading to dose reduction [5]: 3 (6.7) n (%)
Treatment-emergent AE: Leading to treatment discontinuation [5]: 3 (6.7) n (%)
Treatment-emergent AE: Serious [5]: 25 (55.6) n (%)
Treatment-related AE [5]: 35 (77.8) n (%)
Treatment-related AE: Grade 3 or higher [5]: 10 (22.2) n (%)
Treatment-related AE: Leading to death [5]: 0 (0.0) n (%)
Treatment-related AE: Leading to dose interruption [5]: 14 (31.1) n (%)
Treatment-related AE: Leading to dose modification [5]: 14 (31.1) n (%)
Treatment-related AE: Leading to dose reduction [5]: 3 (6.7) n (%)
Treatment-related AE: Leading to treatment discontinuation [5]: 2 (4.4) n (%)
Treatment-related AE: Serious [5]: 3 (6.7) n (%)
Upper respiratory tract infection, AE of any grade [5]: 8 (17.8) n (%)
Urinary tract infection, AE of any grade [5]: 8 (17.8) n (%)
Vomiting, AE of any grade [5]: 16 (35.6) n (%)
Dose-limiting toxicity [6]: 1 (5.3) n (%)
Treatment-emergent AE [6]: 19 (100.0) n (%)
Treatment-emergent AE: Grade 3 or higher [6]: 14 (73.7) n (%)
Treatment-emergent AE: Leading to death [6]: 0 (0.0) n (%)
Treatment-emergent AE: Leading to dose interruption [6]: 13 (68.4) n (%)
Treatment-emergent AE: Leading to dose modification [6]: 13 (68.4) n (%)
Treatment-emergent AE: Leading to dose reduction [6]: 1 (5.3) n (%)
Treatment-emergent AE: Leading to treatment discontinuation [6]: 2 (10.5) n (%)
Treatment-emergent AE: Serious [6]: 6 (31.6) n (%)
Treatment-related AE [6]: 17 (89.5) n (%)
Treatment-related AE: Grade 3 or higher [6]: 10 (52.6) n (%)
Treatment-related AE: Leading to death [6]: 0 (0.0) n (%)
Treatment-related AE: Leading to dose interruption [6]: 11 (57.9) n (%)
Treatment-related AE: Leading to dose modification [6]: 11 (57.9) n (%)
Treatment-related AE: Leading to dose reduction [6]: 1 (5.3) n (%)
Treatment-related AE: Leading to treatment discontinuation [6]: 2 (10.5) n (%)
Treatment-related AE: Serious [6]: 1 (5.3) n (%)

Reference: article PMC8854719, “Phase 1A/1B dose-escalation and -expansion study to evaluate the safety, pharmacokinetics, food effects and antitumor activity of pamiparib in advanced solid tumours” (British Journal of Cancer, 2021)
